Data reported in patent US12478569B2, “Compositions methods and device for enhancing dental care based on dead sea salt and cannabinoid or extract of cannabis plant” (CANNIBITE BVBA, priority 2019, dated 2025).

What was measured:
Type in all cases: cell-based
gingival plaque = assay: Cannabinoid effects on gingival plaque in vitro in subjects with gum disease (FIG. 2)
Procedure: FIG. 2A-2F illustrate the effects of selected cannabinoids on gingival plaque in various individuals. Samples of gingival plaque were obtained from individuals A-F with various degrees of gum disease, samples were plated in the presence of various cannabinoids, cannabinoid formulations or essential oils, and cultured as above (samples A-F correspond to plates 1-6).
The effects of cannabinoids on gum disease was further investigated in a series of subjects with various degrees of gingivitis (an earliest and mildest form) or periodontitis (full-fledged gum disease), the severity of gum disease was further evaluated using Dutch Periodontal Screening Index (DPSI).
Samples of gingival plaque were obtained from 6 subjects (A-F) with various degrees of gum disease, samples were plated and cultured for 2 days at 37° C. in the presence of various cannabinoids and cannabinoid combinations.

dental flora (plaque) = assay: Cannabinoid sensitivity tests in vitro on dental flora (plaque) of 10 subjects; parameters: key to suppression of bacterial flora (score): Increasing scores (+) indicate an increased suppression of bacterial flora; conditions: for suppression of bacterial flora (score): dental flora in vitro
Procedure: Subsequently, in a more extended in vitro trial the effectiveness of cannabinoids was determined in 10 subjects (A-J). Samples of dental flora (plaque) were collected by swabs, scrapes, and were tested on the following panel of cannabinoids and cannabinoid combinations: • 1=CBD • 2=CBD+CBN • 3=CBD+CBN+CBG • 4=CBD+CBN+CBG+CBC • 5=CBD+CBN+CBG+CBC+CBGA • 6=CHG reference antimicrobial agent • 7=control with no antiseptic or antimicrobial agent.
Bacterial sensitivity was determined by conventional methods, e.g., growth on selective media, microscopic fluorescence examination.

dental biofilm/plaque = assay: Preliminary case study: dental biofilm/plaque sample plated and cultured in the presence of cannabinoids (FIG. 1); conditions: dental plaque sample cultured for 2 days at 37° C.
Procedure: FIG. 1 illustrates a case study on the antimicrobial effect of cannabinoids on dental plaque. A sample of dental plaque was plated in the presence CBD or CBG and a reference antimicrobial agent (chlorhexidine gluconate, CHG), and cultured for 2 days at 37° C. The resulting bacterial colonies are shown.
A sample of dental biofilm/plaque was obtained, plated and cultured for 2 days at 37° C. in the presence of two types of cannabinoids, CBD and CBG, and Chlorhexidine (CHG) as a reference antimicrobial agent.

[1] = subject A, moderate gingivitis, DPSI score 1, 2 days at 37° C.
[2] = subject C, periodontitis, DPSI score −3, 2 days at 37° C.
[3] = subject D, moderate gingivitis, DPSI score 2, 2 days at 37° C.
[4] = subject E, advanced periodontitis, DPSI score +3, 2 days at 37° C.
[5] = subject F, moderate gingivitis, DPSI score 1, 2 days at 37° C.

Row | Compound | Relative effectiveness (gingival plaque; [1]) | Relative effectiveness (gingival plaque; [2]) | Relative effectiveness (gingival plaque; [3]) | Relative effectiveness (gingival plaque; [4]) | Relative effectiveness (gingival plaque; [5]) | bacterial growth in the saturated zone (dental biofilm/plaque) | other results
1 | CCCCCc1cc(O)c2c(c1)OC(C)(CCC=C(C)C)C=C2 (stereo not drawn) [CBC, Cannabichromene] | CBG > CBGA > CBN ≈ CBC | CBC > CBG > CBD > CBN | CBGA > CBC > CBG ≈ CBN | CBG ≈ CBGA > CBC > CBD | CBC > CBG ≈ CBGA ≈ CBD |  | 
2 | C=C(C)[C@@H]1CCC(C)=C[C@H]1c1c(O)cc(CCCCC)cc1O [CBD, Cannabidiol] |  | CBC > CBG > CBD > CBN |  | CBG ≈ CBGA > CBC > CBD | CBC > CBG ≈ CBGA ≈ CBD | no growth | effectiveness on suppression of dental flora in vitro (dental flora (plaque); in many individuals): sufficiently effective; most effective panel of cannabinoids (dental flora (plaque); patient B): most effective; Relative effectiveness (gingival plaque; subject B, no gingivitis and no pathology, DPSI score 0, 2 days at 37° C.): POM ≈ POM form. ≈ CBD > CBD form.
3 | CCCCCc1cc(O)c(C/C=C(\C)CCC=C(C)C)c(O)c1 [CBG, Cannabigerol] | CBG > CBGA > CBN ≈ CBC | CBC > CBG > CBD > CBN | CBGA > CBC > CBG ≈ CBN | CBG ≈ CBGA > CBC > CBD | CBC > CBG ≈ CBGA ≈ CBD | lesser bacterial growth | 
4 | CCCCCc1cc(O)c(C/C=C(\C)CCC=C(C)C)c(O)c1C(=O)O [CBGA, Cannabigerolic acid] | CBG > CBGA > CBN ≈ CBC |  | CBGA > CBC > CBG ≈ CBN | CBG ≈ CBGA > CBC > CBD | CBC > CBG ≈ CBGA ≈ CBD |  | 
5 | CCCCCc1cc(O)c2c(c1)OC(C)(C)c1ccc(C)cc1-2 [CBN, Cannabinol] | CBG > CBGA > CBN ≈ CBC | CBC > CBG > CBD > CBN | CBGA > CBC > CBG ≈ CBN |  |  |  | 
6 | N=C(NCCCCCCNC(=N)NC(=N)Nc1ccc(Cl)cc1)NC(=N)Nc1ccc(Cl)cc1.O=C(O)[C@H](O)[C@@H](O)[C@H](O)[C@H](O)CO.O=C(O)[C@H](O)[C@@H](O)[C@H](O)[C@H](O)CO [CHG, chlorhexidine gluconate] |  |  |  |  |  | lesser bacterial growth | suppression of bacterial flora (score) (dental flora (plaque); subject A): + +; suppression of bacterial flora (score) (dental flora (plaque); subject B): + +; suppression of bacterial flora (score) (dental flora (plaque); subject C): +; suppression of bacterial flora (score) (dental flora (plaque); subject D): + +; suppression of bacterial flora (score) (dental flora (plaque); subject E): − −; suppression of bacterial flora (score) (dental flora (plaque); subject F): − −; suppression of bacterial flora (score) (dental flora (plaque); subject G): + + +; suppression of bacterial flora (score) (dental flora (plaque); subject H): +; suppression of bacterial flora (score) (dental flora (plaque); subject I): + +; suppression of bacterial flora (score) (dental flora (plaque); subject J): − −
